Measured values published in patent publication US12351574B2, “Selective ligands for modulation of GIRK channels” (Northeastern University, priority 2018, dated 2025).

Test system: fear memories (freezing behavior)
Experiment: cued fear conditioning test
Format: in vivo, rat
Conditions: for effect on fear acquisition (in words): FIG. 62A
Procedure: Cued fear conditioning test: On day 1, animals were habituated to the sound attenuating fear conditioning chamber (Kinder Scientific, Poway, CA) for 10 min. Between each animal, the chamber was cleaned with 70% ethanol. On day 2, acquisition of fear was achieved by placing rats back into the chamber for a 120 s acclimation period and then five pairings (120 s inter-trial interval) of the conditioned stimulus (CS; 20 s, 80 dB) followed immediately by the unconditioned shock stimulus (US; 500 ms, 0.8 mA foot shock). On day 3, CS consolidation was assessed by placing the rats back into the chamber with a 120 s acclimation period followed by five presentations of the CS only (20 s, 80 dB) with 120 s inter-trial-intervals. On day 4, extinction was assessed by presenting a 120 s acclimation period followed by 20 trials of the CS (20 s, 80 dB) with 120 s inter-trial-intervals. The same experimenter (SDF) handled the rats during all sessions and was blinded to the treatment. All trials were digitally video-recorded. For this behavioral test and all others, blind scoring was aided by modification of video file names by AIM. Freezing behavior (no visible signs of movement) was scored by SDF during the sound presentation and converted to percentage of total time. The acquisition, expression, extinction and recall of fear memories were assessed in a […] learning paradigm (modified from Johnson, P. L., et al., Pharmacological depletion of serotonin in the basolateral amygdala complex reduces anxiety and disrupts fear conditioning, Pharmacol Biochem Behav, 2015. 138: p. 174-9). Rats were habituated to the sound attenuating fear conditioning chamber on day 1 (Kinder Scientific, Poway, CA) for 10 min. For all experiments, the chamber was cleaned between animals. On day 2 acquisition of fear occurred where the rats were placed back into the chamber and after a 120 s acclimation period received 5 pairings (120 s inter-trial interval) of the conditioned stimulus (CS; 20 s, 80 dB) followed immediately by the unconditioned shock stimulus (US; 500 ms, 0.8 mA foot shock). On day 3 conditioned stimulus (CS) consolidation was assessed by placing the rats back into the chamber with a 120 s acclimation period followed by 5 presentations of the CS only (20 s, 80 dB) separated by 120 s. On day 4 extinction was assessed which consisted of the 120 s acclimation period followed by 20 trials of the CS (20 s, 80 dB) separated by 120 s intervals. On day 5, all animals were assessed for the recall. Animals were placed in the chamber and were presented with 5 tones. The same experimenter handled the rats during all sessions and was blinded to the phenotype. All trials were digitally video-recorded. Freezing behavior (no visible signs of movement) was scored by a blind scorer during the sound presentation and converted to percentage of total time.

[1] = 10 or 30 mg/kg i.p., FIGS. 27, 28
[2] = 10 or 30 mg/kg i.p., after acquisition and 30 min prior to consolidation, FIGS. 27, 28
[3] = 30 mg/kg, vehicle tone 5 (GAT1521 study), tone 6 (ML297 study)

Compound | effect on fear acquisition (in words) (10 mg/kg) | effect on fear consolidation (in words) (10 mg/kg, FIG. 62B) | effect on fear acquisition (in words) (30 mg/kg, early pairings) | extinction of fear memories versus vehicle (in words) [1] | effect on consolidation of fear memories (in words) [2] | recall of the freezing behavior (in words) (FIG. 62E) | tone by which freezing was significantly reduced during extinction (GAT1508 group, control group tone 7) | fear extinction of the freezing behavior (in words) (follow-up experiments, FIGS. 62C-62D, 63) | tone by which freezing was significantly reduced during extinction [3] | effect on consolidation of fear memories (in words) (30 mg/kg, FIG. 29) | extinction of fear memories versus controls (in words) (30 mg/kg, FIG. 29)
Cc1cc(NC(=O)Nc2ccc(Br)s2)n(-c2ccccc2)n1 [GAT1508, 1-(5-bromothiophen-2-yl)-3-(3-methyl-1-phenyl-1H-pyrazol-5-yl)urea] | no significant effects | no significant effects | significant reductions in fear acquisition | extinguished fear memories much faster | no effects | No significant changes | 4 tone | more efficient extinction of the freezing behavior |  |  | 
Cc1cc(NC(=O)Nc2ccc(C)s2)n(-c2ccccc2)n1 [GAT1521, 1-(3-methyl-1-phenyl-1H-pyrazol-5-yl)-3-(5-methylthiophen-2-yl)urea] |  |  |  | significantly reduced overall freezing during extinction | affected consolidation of fear memories |  |  |  | 3 tone |  | 
Cc1cc(NC(=O)Nc2ccc(F)c(F)c2)n(-c2ccccc2)n1 [ML297, reference compound] |  |  |  |  |  |  |  |  | 6 tone | no effect | no significant differences
